Where a name gives a salt, the structure may show the parent alone.
What was measured:
Type in all cases: cell-based
Adenosine 2a receptor = target: T1, Adenosine 2a receptor (Homo sapiens, UniProt P29274); assay: Agonist activity against adenosine 2a receptor subtype (CHO cells, cAMP response element/SPAP reporter); conditions: EC50 ratio to NECA; transfected CHO cells, basal cAMP reflected by SPAP
T1 construct: expressed in transfected cells; host or cells: Chinese hamster ovary (CHO) cells, co-transfected with a CRE-SPAP reporter
Method in brief: (§1)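 CHO cells expressed the human receptor plus a cAMP response element–driven SPAP reporter. Agonism was measured as SPAP change from forskolin-enhanced cAMP for A1 and A3, and from basal cAMP for A2a. EC50 is expressed as a ratio to that of NECA.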

Adenosine 3 receptor = target: T2, Adenosine 3 receptor (Homo sapiens, UniProt P0DMS8); assay: Agonist activity against adenosine 3 receptor subtype (CHO cells, forskolin-enhanced cAMP, SPAP reporter); conditions: EC50 ratio to NECA; transfected CHO cells, forskolin-enhanced cAMP reflected by SPAP
T2 construct: expressed in transfected cells; host or cells: Chinese hamster ovary (CHO) cells, co-transfected with a CRE-SPAP reporter
T2 sequence (P0DMS8 1-318): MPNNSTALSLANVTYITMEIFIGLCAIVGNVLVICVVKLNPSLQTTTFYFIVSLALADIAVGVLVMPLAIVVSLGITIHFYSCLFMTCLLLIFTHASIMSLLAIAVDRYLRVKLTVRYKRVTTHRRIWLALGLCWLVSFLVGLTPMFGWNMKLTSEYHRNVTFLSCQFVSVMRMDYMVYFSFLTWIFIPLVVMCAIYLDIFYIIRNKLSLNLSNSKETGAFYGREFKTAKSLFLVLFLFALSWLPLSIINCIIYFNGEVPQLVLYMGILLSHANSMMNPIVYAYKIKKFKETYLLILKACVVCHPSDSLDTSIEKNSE
Method in brief: as §1

Adenosine 1 receptor = target: T3, Adenosine 1 receptor (Homo sapiens, UniProt P30542); assay: Agonist activity against adenosine 1 receptor subtype (CHO cells, forskolin-enhanced cAMP, SPAP reporter); conditions: EC50 ratio to NECA; transfected CHO cells, forskolin-enhanced cAMP reflected by SPAP
T3 construct: expressed in transfected cells; host or cells: Chinese hamster ovary (CHO) cells, co-transfected with a CRE-SPAP reporter
T3 sequence (P30542 1-326): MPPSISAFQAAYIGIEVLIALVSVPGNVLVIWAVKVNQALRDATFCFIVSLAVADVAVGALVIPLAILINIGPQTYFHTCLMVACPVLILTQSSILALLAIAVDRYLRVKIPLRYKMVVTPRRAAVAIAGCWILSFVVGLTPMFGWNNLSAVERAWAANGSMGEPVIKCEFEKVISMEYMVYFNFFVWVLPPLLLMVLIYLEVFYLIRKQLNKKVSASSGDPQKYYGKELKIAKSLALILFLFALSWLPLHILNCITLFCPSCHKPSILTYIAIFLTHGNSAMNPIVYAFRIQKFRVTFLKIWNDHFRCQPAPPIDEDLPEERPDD
Method in brief: as §1

T1 sequence (P29274 whole entry): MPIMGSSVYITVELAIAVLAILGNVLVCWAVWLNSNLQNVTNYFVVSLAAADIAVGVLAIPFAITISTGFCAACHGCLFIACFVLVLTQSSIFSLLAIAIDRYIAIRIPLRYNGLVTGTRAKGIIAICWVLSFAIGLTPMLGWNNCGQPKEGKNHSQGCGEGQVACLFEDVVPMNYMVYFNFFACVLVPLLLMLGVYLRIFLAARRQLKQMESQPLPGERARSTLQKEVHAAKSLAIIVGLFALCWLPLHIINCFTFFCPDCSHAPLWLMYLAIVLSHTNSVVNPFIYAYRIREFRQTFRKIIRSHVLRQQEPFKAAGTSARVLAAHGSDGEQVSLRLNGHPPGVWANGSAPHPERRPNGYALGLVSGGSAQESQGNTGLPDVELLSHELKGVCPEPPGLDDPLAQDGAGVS

A2a (EC50 values as a ratio of that of NECA) (Adenosine 2a receptor)	A3 (EC50 values as a ratio of that of NECA) (Adenosine 3 receptor)	A1 (EC50 values as a ratio of that of NECA) (Adenosine 1 receptor)	Structure (SMILES)
41.06	>395	1369.08	CCc1cc(C2OC(n3cnc4c(NCCC(C)(C)C)nc(NCCN5CCOCC5)nc43)C(O)C2O)on1 [Example 42, (2R,3R,4S,5S)-2-[6-(3,3-Dimethyl-butylamino)-2-(2-morpholin-4-ethylamino)-purin-9-yl]-5-(3-ethyl-isoxazol-5-yl)-tetrahydro-furan-3,4-diol diformate]]
14.5	>263	165.8	CCc1cc(C2OC(n3cnc4c(NC5CCN(C(C)=O)CC5)nc(NC(CO)Cc5ccccc5)nc43)C(O)C2O)on1 (stereo not drawn) [Example 28, 1-{4-[9-[5S-(3-Ethyl-isoxazol-5-yl)-3R,4S-dihydroxy-tetrahydro-furan-2R-yl]-2-(1S-hydroxymethyl-2-phenyl-ethylamino)-9H-purin-6-ylamino]-piperidin-1-yl}-ethanone formate]
2.05	>323	132.3	CCc1cc(C2OC(n3cnc4c(NC5CCSCC5)nc(NCCNC(=N)N)nc43)C(O)C2O)on1 (stereo not drawn) [Example 9, N-{2-[9-[5S-(3-Ethyl-isoxazol-5-yl)-3R,4S-dihydroxy-tetrahydro-furan-2R-yl]-6-tetrahydro-thiopyran-4-ylamino)-9H-purin-2-ylamino]-ethyl}-guanidine diformate]
5.46	>198	103.8	CCc1cc(C2OC(n3cnc4c(NCCS(=O)(=O)NC)nc(NCCNC(=N)N)nc43)C(O)C2O)on1 (stereo not drawn) [Example 25, 2-[2-9-[5S-(3-Ethyl-isoxazol-5-yl)-3R,4S-dihydroxy-tetrahydro-furan-2R-yl]-2-(2-guanidino-ethylamino)-9H-purin-6-ylamino]-ethanesulfonic acid methylamide diformate]
4.58	>257	108.8	CCc1cc([C@@H]2O[C@H](n3cnc4c(NC5CCSCC5)nc(NCCc5ccccn5)nc43)[C@@H](O)[C@H]2O)on1.O=CO.O=CO [Example 30, (2R,3R,4S,5S)-2-(3Ethyl-isoxazol-5-yl)-5-[2-(2-pyridin-2-yl-ethylamino)-6-(tetrahydro-thiopyran-4-ylamino)-purin-9-yl]-tetrahydro-furan-3,4-diol diformate]
5.29	>737	44.1	CCc1cc(C2OC(n3cnc4c(NC(CC)CC)nc(NCCN5CCOCC5)nc43)C(O)C2O)on1.O=CO.O=CO [Example 38, (2S,3S,4R,5R)-2-(3Ethyl-isoxazol-5-yl)-5-[6(1-ethyl-propylamino)-2-(2-morpholin-4-yl-ethylamino)-purin-9-yl]-tetrahydro-furan-3,4-diol diformate]
21.63	>340	1359.98	CCc1cc(C2OC(n3cnc4c(NCc5ccccc5)nc(NCCc5ccccn5)nc43)C(O)C2O)on1.O=CO.O=CO [Example 52, (2S,3S,4R,5R)-2-(3-Ethyl-isoxazol-5-yl)-5-[6-benzylamino-2-(2-pyridin-2-yl-ethylamino)-purin-yl]-tetrahydro-furan-3,4-diol diformate]
1.03	>303	21.37	CCc1cc(C2OC(n3cnc4c(NC(CO)Cc5ccccc5)nc(NCCNc5ccccn5)nc43)C(O)C2O)on1 [Example 62, (2S,3S,4R,5R)-2-(3-Ethyl-isoxazol-5-yl)-5-{6-(1S-hydroxymethyl-2-phenyl-ethylamino)-2-[2-(pyridin-2-ylamino)-ethylamino]-purin-9-yl}-tetrahydro-furan-3,4-diol diformate]

From patent US6762170B1, “2-(purin-9-yl)-tetrahydrofuran-3,4-diol derivatives” (SmithKlineBeecham Corporation, priority 1998, dated 2004)
